Assay results as given in patent US20090291905A1, “FUNGAL PHYTOTOXIN FUSICOCCIN FOR THE TREATMENT AND DIAGNOSIS OF COAGULATION-CORRELATED PATHOLOGIES” (priority 2008, published 2009).
Square brackets hold non-standard residues; d marks the D form. Primed or numbered codes have the meaning given here. Ends that are not written are not given here. * marks the point of attachment. Myristoyl = CCCCCCCCCCCCCC(=O)*; pS′ = not defined here

Legend:
[1] = system: platelet adhesion to immobilized vWF; test: Platelet adhesion to immobilized vWF; type: cell-based, human; conditions: platelets pre-incubated with FC
Protocol: 90 μl platelet suspension was incubated with purified vWF immobilized onto polystyrene wells. After washings, adherent platelets were determined measuring the endogenous acid phosphatase activity. +FC, platelets previously treated with 40 μM FC; +ADP, incubation in the presence of 50 μM ADP.
Platelet adhesion to immobilized vWF was performed in polystyrene microtitre plate wells as described by Lu et al. (1994) with minor modifications. Briefly, plate wells were coated overnight at 4° C. with 100 μl 15 μg/ml purified vWF and 15 μg/ml BSA. After three washes with PBS unbound sites were saturated with 200 μl of 2 mg/ml BSA for 2 h at RT. After three washings with PBS, wells were incubated with 90 μl platelet suspension (2.0×10^8/ml) previously treated with 40 μM FC. Where indicated, wells were preloaded with 50 μM ADP. After 1 h incubation at RT, non-adherent platelets were removed by 7 washings with a buffer 10 mM Hepes containing 145 mM NaCl, 5 mM KCl, 1 mM MgCl2, 2 mM CaCl2, 10 mM glucose, 3.5 mg/ml BSA, pH 7.35. The number of vWF-bound platelet was calculated by measurement of endogenous acid phosphatase using 130 μl/well of developing buffer (10 mM p-nitrophenyl phosphate, 0.1% Triton X-100, 50 mM sodium citrate, pH 5.5). After 1 h at 37° C. incubation, the reaction was stopped by the addition of 10 μl of 1 M NaOH/well and the plates were read at 405 nm on an automated plate reader. […]

[2] = biological target: T1, 14-3-3 proteins / bD15Lp peptide (last 15 amino acid residues of GPIbα) (UniProt P07359+P49106); test: Binding of 32P-labelled 14-3-3 (GF14-6) to resin-bound bD15Lp phosphopeptide; conditions: 10 μM FC; resin-bound radioactivity; no binding in the absence of FC
T1 construct: GST (pGEX-2TK, with protein kinase A site at the junction, 32P-labelled) (N); made in house; host or cells: E. coli (14-3-3); peptide synthesized by Neosystem
Protocol: (§1) Peptides were immobilized onto streptavidin-agarose resin and incubated with ^32P-labelled 14-3-3 in the absence or in the presence of 10 μM FC. After washing, radioactivity associated with the resin was measured. Data are the mean of three independent experiments.
(§2) 0.5 nmol of biotinylated peptides were immobilized onto 40 μl of streptavidin-agarose resin (Sigma-Aldrich) and incubated in 50 μl of buffer H with 3 μg of ^32P-labelled GF14-6 (1.4 kBq/μg) for 60 min at room temperature in the absence or in the presence of 10 μM FC. Resin was then centrifuged at 2000×g for 5 min and washed three times with 1 ml of buffer H. Resin-bound radioactivity was measured in a liquid scintillation β-counter Packard Tri Carb 2100TR (Canberra, Australia).
(§3) A phosphorylated biotinyl-peptide (bD15Lp), reproducing the last 15 amino acid residues of GPIbα, and containing the 14-3-3 binding sequence, was used in interaction studies with 14-3-3 proteins to verify the ability of FC to stimulate the interaction. The unphosphorylated corresponding peptide ([…]) and peptides reproducing the last 15 amino acids of the H^+-ATPase in unphosphorylated (bL15V) and phosphorylated form (bL15Vp) were used as control.
(§4) The peptides were immobilized onto a streptavidin-agarose resin and incubated with ^32P-labelled 14-3-3 proteins.

[3] = system: isolated human platelets; test: Binding of [3H]FC to isolated human platelets; conditions: 10 nM [3H]FC, displaced by 10 μM unlabelled FC; 1 h at 37° C.
Protocol: 30 μl of platelet suspension (2.0×10^8/ml) were incubated for 1 h at 37° C. with 5×10^5 dpm [^3H]FC in 100 μl PBS containing 5 mM MgCl2. Where indicated, 10 μM cold FC was added (+FC). Platelets were then sedimented by centrifugation and radioactivity measured by scintillation counting.
30 μl of platelet suspension (2.0×10^8/ml) were incubated for 1 h at 37° C. with 5×10^5 dpm [^3H]FC in 100 μl PBS containing 5 mM MgCl2. To calculate specific binding, control sample was incubated with 10 μM FC. Platelets were centrifuged at 2000 g for 4 min in a refrigerated microcentrifuge and extensively washed in PBS containing 5 mM MgCl2. 500 μl perchloric acid was then added and radioactivity was measured in a liquid scintillation β-counter.
In order to verify whether a FC binding activity is present in purified human platelets, a [^3H]FC analogue (Ballio et al., 1980) was utilised. 30 μl platelet suspension in PBS (2.0×10^8/ml) were incubated with 10 nM [^3H]FC, and after several washings, the platelet-associated radioactivity was measured. The specific [^3H]FC binding was evaluated by adding a saturating concentration of unlabelled FC.

[4] = biological target: T2, 14-3-3 proteins / GPIbα (UniProt P07359+P49106); test: Overlay assay of 32P-14-3-3 on blotted platelet proteins; type: binding, human; conditions: 10 μM FC; autoradiography
T2 construct: GST (pGEX-2TK, with protein kinase A site at the junction, 32P-labelled) (N); made in house; host or cells: E. coli (14-3-3 probe); GPIbα endogenous, from boiled human platelet suspension
Protocol: A: SDS-PAGE profile of platelet proteins. B: immunodecoration of GPIbα with anti-GPIbα ([…]) antidoby. C: overlay assay. Maize plasma membrane proteins (lanes 1, positive control) or platelet proteins (lanes 2) were separated by SDS-PAGE, blotted onto nitrocellulose membrane, incubated with ^32P-14-3-3 in the absence (−FC) or in the presence (+FC) of 10 μM FC and subjected to autoradiography as described in the Materials and Methods.
SDS-PAGE was performed as described by Laemmli (1970), in a Mini Protean apparatus (Bio-Rad). The overlay assay was carried out according to Fullone et al. (1998), with minor modifications. The GST-fused 14-3-3 was labelled with [γ^32P]-ATP on cAMP-dependent protein kinase phosphorylation site present at junction between GST and the cloned protein, ^32P-labelled GF14-6 was used as probe in the overlay experiments. 30 μl of platelet suspension (2.0×10^8/mi) was boiled in Laemmli loading buffer, separated on SDS-PAGE and blotted on nitrocellulose membrane by semidry electroblotting. 20 μg of maize plasma membrane proteins were used as positive control. […] Nitrocellulose membrane was extensively washed with buffer HT and radioactivity detected by autoradiography. […]

[5] = biological target: T3, 14-3-3 proteins / bL15Vp peptide (last 15 amino acids of the H+-ATPase) (Zea mays, UniProt P49106); test: Binding of 32P-labelled 14-3-3 (GF14-6) to resin-bound bL15Vp phosphopeptide; conditions: 10 μM FC; resin-bound radioactivity
T3 construct: GST (pGEX-2TK, with protein kinase A site at the junction, 32P-labelled) (N); made in house; host or cells: E. coli (14-3-3); peptide synthesized by Neosystem
T3 sequence (P49106 1-261): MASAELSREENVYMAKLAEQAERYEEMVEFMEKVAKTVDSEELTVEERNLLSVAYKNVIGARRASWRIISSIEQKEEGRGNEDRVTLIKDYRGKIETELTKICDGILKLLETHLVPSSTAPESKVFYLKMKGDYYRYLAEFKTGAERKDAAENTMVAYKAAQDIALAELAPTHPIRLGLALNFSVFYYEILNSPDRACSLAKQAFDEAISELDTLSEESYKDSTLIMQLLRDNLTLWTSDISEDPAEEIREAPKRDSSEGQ
Protocol: as §1, §2, §3, §4

[6] = system: platelet aggregation (PRP); test: Platelet aggregation in PRP (turbidometric aggregometer); type: cell-based, human; conditions: for Platelet agglutination/aggregation induced: different FC concentrations, ristocetin 1 mg/ml
Protocol: Aggregation was studied with PRP using a turbidometric aggregometer as described in the Materials and Methods. A: effect of different concentrations of FC and ristocetin 1.0 mg/ml. B: effect of 40 μM FC in the presence of the aggregation antagonist RGDS peptide. C: effect of 40 μM FC in the presence of the cell-permeable 14-3-3 competitor MPAC peptide.
Washed platelets were prepared from platelet-rich plasma (PRP) obtained from healthy donors who had not taken medication for at least 9 days before bleeding. Preparation of PRP was performed as described by Dai et al. (2005).
PRPs were preincubated at 37° C. with different FC concentrations and, when indicated 0.1 mM MPaC or 0.75 mM RGDS. Aggregation was measured using a turbidometric platelet aggregometer Chrono-log 560 CA (Chrono-log Corporation, Pa., USA). 500 μl PRP were placed in a cuvette at 37° C. under continuous stirring at 1000 rpm. Aggregation was expressed as percentage of change in light transmission, with the value for the blank sample (PPP, Platelet-Poor Plasma) set at 100% and 0% for PRP.
To determine whether the FC-promoted binding of platelets to vWF results in platelet aggregation, the effect of FC on platelet functionality was assayed using an optical aggregometer. […] To determine whether the FC effect involves 14-3-3 proteins, the MPAC peptide was tested in FC-induced platelet agglutination.

T2 sequence (P07359 17-652, one chain of several): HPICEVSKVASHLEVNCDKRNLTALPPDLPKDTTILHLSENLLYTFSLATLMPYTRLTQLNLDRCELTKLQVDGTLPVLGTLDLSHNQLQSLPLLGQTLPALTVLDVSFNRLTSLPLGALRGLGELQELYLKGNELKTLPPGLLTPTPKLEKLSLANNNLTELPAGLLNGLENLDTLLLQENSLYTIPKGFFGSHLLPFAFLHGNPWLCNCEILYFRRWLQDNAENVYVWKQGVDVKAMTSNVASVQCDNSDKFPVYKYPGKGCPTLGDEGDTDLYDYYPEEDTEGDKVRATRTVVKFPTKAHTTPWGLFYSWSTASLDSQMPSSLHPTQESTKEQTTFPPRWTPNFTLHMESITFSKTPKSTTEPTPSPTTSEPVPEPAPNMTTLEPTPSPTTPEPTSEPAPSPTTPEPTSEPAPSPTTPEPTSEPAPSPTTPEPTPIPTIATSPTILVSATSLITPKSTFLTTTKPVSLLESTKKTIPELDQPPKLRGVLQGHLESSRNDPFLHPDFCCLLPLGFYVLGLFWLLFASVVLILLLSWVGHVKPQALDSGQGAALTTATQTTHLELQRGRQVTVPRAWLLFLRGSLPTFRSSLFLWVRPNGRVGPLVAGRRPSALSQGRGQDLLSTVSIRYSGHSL

| Compound | Number of platelets adherent to vWF ([1]; in the presence of 50 μM platelet agonist ADP (+ADP)) | Number of platelets adherent to vWF ([1]; resting platelets (−ADP)) | Effect of FC on 14-3-3 binding to immobilized bD15Lp peptide [2] | Specific [3H]FC binding to platelets [3] | Effect of FC on the interaction between 14-3-3 proteins and GPIbα (135 kDa band) [4] | Effect of FC on 14-3-3 binding to immobilized bL15Vp peptide [5] | FC concentration giving maximum agglutination ([6]; PRP, 37° C.) [µM] | Platelet agglutination/aggregation induced ([6]; PRP, 37° C.) | Inhibition of FC-induced platelet aggregation ([6]; 40 μM FC, 0.1 mM MPαC or 0.75 mM RGDS) |
| --- | --- | --- | --- | --- | --- | --- | --- | --- | --- |
| C=CC(C)(C)OC[C@H]1O[C@H](O[C@@H]2C3=C([C@H](C)COC(C)=O)C[C@H](O)[C@]3(C)/C=C3/[C@@H](COC)CC[C@H]3[C@@H](C)[C@H]2O)[C@H](O)[C@@H](OC(C)=O)[C@@H]1O [FC, fusicoccin] | significantly increased | significantly increased | in the presence of the toxin binding is generated | platelets possess specific FC binding activity | the interaction is increased | strongly stimulated | 40 | slight but reproducible agglutination in a dose-dependent manner | – |
| C13H27CONH-Ser-lle-Arg-Tyr-Ser-Gly-His-pSer-Leu (Myristoyl-SIRYSGH[pS′]L) [MPαC, reference compound] | – | – | – | – | – | – | – | – | completely inhibits FC effect |
| ristocetin [reference compound] | – | – | – | – | – | – | – | rapid platelet agglutination | – |
